Test results: BindingDB's records for doi:10.1021/np0604580 (University of California - San Diego, 2007)

Molecular target: T1, Ornithine decarboxylase (Homo sapiens, UniProt P11926)
T1 sequence (P11926 whole entry): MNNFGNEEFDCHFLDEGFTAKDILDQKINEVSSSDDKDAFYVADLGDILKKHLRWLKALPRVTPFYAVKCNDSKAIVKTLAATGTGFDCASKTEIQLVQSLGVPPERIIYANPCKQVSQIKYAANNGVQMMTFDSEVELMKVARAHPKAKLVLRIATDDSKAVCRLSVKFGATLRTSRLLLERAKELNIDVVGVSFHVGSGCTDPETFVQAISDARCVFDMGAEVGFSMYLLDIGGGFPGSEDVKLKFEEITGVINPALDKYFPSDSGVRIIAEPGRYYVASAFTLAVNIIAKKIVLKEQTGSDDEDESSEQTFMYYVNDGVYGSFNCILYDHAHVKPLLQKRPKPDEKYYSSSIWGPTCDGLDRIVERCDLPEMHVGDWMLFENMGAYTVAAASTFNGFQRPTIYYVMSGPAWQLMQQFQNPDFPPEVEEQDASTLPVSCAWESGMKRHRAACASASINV
Test: Inhibition of TPA-induced ornithine decarboxylase expressed in T24 cells

| SMILES | IC50 [µM] |
| --- | --- |
| C[C@H]([C@H](O)[C@H](C)[C@@H](O)[C@@H](C)/C=C/C=C(/CO)C(N)=O)[C@@H]1O[C@@]2(C)CC[C@@H](O2)[C@H]1C [SALINIKETAL B] | 18.9 |
| C/C(=C/C=C/[C@H](C)[C@H](O)[C@@H](C)[C@@H](O)[C@@H](C)[C@@H]1O[C@@]2(C)CC[C@@H](O2)[C@H]1C)C(N)=O [SALINIKETAL A] | 5.05 |
